How the values were obtained:
Conditions in all cases: Compound concentration 10 µM
[1] = target: 5-hydroxytryptamine receptor 7 (Homo sapiens) (UniProt P34969)
[2] = target: T1, 5-hydroxytryptamine receptor 1A (Homo sapiens) (UniProt P08908)
T1 sequence (whole entry): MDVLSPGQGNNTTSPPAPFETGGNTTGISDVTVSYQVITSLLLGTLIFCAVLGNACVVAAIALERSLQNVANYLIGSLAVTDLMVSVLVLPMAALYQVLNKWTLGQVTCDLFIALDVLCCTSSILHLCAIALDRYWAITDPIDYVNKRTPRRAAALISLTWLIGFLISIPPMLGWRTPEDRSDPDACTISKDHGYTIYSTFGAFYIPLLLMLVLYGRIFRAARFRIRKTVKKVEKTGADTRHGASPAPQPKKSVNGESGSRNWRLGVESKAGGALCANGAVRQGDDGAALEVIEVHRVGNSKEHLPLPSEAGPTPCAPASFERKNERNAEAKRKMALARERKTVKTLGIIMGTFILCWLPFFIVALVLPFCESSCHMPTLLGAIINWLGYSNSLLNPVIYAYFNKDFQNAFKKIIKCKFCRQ

[3] = target: T2, Alpha-1D adrenergic receptor (Homo sapiens) (UniProt P25100)
T2 sequence (whole entry): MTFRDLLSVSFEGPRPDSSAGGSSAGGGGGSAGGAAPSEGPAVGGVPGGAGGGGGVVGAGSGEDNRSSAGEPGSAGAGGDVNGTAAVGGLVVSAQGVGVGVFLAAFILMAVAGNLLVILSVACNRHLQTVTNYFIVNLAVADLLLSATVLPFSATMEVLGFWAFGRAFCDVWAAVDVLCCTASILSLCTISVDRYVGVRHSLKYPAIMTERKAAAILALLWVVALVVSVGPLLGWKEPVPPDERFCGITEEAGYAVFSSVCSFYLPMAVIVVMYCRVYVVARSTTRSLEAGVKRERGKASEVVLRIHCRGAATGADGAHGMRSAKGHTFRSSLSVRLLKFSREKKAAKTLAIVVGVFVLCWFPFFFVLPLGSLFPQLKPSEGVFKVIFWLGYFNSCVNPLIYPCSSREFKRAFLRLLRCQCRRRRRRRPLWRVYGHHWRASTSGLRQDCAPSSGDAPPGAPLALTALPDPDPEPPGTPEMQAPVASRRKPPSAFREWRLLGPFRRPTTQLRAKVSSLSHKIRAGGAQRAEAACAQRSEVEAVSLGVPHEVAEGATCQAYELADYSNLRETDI

[4] = target: D(2) dopamine receptor (Homo sapiens) (UniProt P14416)
[5] = target: Delta-type opioid receptor (Homo sapiens) (UniProt P41143)
[6] = target: Kappa-type opioid receptor (Homo sapiens) (UniProt P41145)
[7] = target: Beta-1 adrenergic receptor (Homo sapiens) (UniProt P08588)
[8] = target: 5-hydroxytryptamine receptor 6 (Homo sapiens) (UniProt P50406)
[9] = target: Sodium-dependent dopamine transporter (Homo sapiens) (UniProt Q01959)
[10] = target: Sodium-dependent noradrenaline transporter (Homo sapiens) (UniProt P23975)
[11] = target: T3, Muscarinic acetylcholine receptor M4 (Homo sapiens) (UniProt P08173)
T3 sequence (whole entry): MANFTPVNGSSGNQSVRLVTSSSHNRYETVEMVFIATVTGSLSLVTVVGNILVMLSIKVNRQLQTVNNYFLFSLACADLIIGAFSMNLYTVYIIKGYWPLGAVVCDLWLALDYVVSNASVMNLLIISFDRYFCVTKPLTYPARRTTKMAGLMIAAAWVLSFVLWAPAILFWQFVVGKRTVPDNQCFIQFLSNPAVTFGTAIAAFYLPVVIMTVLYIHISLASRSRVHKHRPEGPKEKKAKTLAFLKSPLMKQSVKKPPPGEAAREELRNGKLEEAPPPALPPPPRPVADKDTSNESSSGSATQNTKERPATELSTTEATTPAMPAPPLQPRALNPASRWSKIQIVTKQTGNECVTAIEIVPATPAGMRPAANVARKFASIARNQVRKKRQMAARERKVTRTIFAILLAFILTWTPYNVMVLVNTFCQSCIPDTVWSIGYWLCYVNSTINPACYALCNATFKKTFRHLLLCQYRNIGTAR

[12] = target: Histamine H3 receptor (Homo sapiens) (UniProt Q9Y5N1)
[13] = target: D(1B) dopamine receptor (Homo sapiens) (UniProt P21918)
[14] = target: D(1A) dopamine receptor (Homo sapiens) (UniProt P21728)
[15] = target: Sigma non-opioid intracellular receptor 1 (Homo sapiens) (UniProt Q99720)
[16] = target: Histamine H4 receptor (Homo sapiens) (UniProt Q9H3N8)
[17] = target: D(3) dopamine receptor (Homo sapiens) (UniProt P35462)
[18] = target: Histamine H1 receptor (Homo sapiens) (UniProt P35367)
[19] = target: T4, Alpha-2B adrenergic receptor (Homo sapiens) (UniProt P18089)
T4 sequence (whole entry): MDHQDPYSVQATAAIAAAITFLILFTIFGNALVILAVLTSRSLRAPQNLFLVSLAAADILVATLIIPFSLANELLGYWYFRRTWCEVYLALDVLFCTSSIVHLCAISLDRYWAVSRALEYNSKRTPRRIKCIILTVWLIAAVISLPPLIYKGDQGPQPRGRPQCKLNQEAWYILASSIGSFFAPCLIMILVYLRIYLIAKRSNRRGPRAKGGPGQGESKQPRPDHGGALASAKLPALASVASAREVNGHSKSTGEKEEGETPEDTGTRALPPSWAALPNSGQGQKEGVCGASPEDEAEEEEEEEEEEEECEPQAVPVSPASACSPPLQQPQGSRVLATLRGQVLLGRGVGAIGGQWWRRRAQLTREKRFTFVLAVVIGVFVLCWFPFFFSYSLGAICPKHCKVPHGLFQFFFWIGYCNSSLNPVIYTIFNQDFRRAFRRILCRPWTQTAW

[20] = target: 5-hydroxytryptamine receptor 2A (Homo sapiens) (UniProt P28223)
Chain of 5-hydroxytryptamine receptor 2A (Homo sapiens) (P28223 whole entry): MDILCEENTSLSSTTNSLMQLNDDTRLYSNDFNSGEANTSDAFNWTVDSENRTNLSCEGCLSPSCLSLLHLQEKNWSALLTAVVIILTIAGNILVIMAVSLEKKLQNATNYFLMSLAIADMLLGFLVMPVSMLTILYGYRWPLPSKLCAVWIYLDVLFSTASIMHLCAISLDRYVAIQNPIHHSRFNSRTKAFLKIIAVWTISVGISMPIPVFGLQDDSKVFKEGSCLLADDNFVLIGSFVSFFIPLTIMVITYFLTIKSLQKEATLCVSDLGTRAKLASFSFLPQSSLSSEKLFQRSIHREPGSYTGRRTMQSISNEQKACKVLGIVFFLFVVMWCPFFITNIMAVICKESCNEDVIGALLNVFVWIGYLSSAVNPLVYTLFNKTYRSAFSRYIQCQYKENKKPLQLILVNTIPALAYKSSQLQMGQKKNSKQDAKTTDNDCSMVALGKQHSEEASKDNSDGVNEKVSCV

Chain of 5-hydroxytryptamine receptor 7 (Homo sapiens) (P34969 whole entry): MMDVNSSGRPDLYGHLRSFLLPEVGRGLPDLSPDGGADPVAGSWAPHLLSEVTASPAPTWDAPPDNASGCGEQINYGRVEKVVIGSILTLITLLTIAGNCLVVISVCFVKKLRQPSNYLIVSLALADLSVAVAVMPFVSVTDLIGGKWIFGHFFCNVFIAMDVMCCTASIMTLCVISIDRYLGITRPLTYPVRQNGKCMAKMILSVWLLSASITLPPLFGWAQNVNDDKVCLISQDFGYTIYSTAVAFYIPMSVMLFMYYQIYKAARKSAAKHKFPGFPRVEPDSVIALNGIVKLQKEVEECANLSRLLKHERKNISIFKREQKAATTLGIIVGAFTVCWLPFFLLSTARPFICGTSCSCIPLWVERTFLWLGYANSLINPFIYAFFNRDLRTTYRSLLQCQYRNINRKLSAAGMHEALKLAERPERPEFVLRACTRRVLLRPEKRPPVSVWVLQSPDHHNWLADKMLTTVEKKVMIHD
Chain of Beta-1 adrenergic receptor (Homo sapiens) (P08588 whole entry, looked up): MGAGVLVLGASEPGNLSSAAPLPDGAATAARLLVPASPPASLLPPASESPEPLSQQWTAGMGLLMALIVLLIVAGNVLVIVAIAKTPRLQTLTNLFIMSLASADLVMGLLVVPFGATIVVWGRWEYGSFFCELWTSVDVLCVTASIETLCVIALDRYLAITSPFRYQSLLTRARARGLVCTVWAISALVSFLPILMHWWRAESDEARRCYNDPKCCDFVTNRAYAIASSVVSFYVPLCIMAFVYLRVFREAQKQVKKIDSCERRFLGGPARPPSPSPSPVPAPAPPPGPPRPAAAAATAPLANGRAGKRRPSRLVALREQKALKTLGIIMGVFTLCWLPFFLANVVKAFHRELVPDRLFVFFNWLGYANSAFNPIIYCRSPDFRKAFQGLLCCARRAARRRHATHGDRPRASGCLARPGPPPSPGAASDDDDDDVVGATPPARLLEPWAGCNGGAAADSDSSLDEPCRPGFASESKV
Chain of 5-hydroxytryptamine receptor 6 (Homo sapiens) (P50406 whole entry): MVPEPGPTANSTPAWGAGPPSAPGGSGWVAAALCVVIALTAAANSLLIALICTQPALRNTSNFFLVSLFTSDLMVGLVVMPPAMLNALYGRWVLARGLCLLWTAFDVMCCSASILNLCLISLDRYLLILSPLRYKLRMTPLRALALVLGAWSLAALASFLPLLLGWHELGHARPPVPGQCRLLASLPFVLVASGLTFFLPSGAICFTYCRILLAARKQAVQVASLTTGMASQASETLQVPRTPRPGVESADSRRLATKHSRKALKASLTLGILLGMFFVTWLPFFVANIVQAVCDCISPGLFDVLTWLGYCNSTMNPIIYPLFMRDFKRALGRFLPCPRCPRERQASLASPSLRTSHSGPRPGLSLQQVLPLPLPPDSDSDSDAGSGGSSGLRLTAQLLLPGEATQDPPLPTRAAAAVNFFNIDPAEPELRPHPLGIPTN
Chain of D(3) dopamine receptor (Homo sapiens) (P35462 whole entry): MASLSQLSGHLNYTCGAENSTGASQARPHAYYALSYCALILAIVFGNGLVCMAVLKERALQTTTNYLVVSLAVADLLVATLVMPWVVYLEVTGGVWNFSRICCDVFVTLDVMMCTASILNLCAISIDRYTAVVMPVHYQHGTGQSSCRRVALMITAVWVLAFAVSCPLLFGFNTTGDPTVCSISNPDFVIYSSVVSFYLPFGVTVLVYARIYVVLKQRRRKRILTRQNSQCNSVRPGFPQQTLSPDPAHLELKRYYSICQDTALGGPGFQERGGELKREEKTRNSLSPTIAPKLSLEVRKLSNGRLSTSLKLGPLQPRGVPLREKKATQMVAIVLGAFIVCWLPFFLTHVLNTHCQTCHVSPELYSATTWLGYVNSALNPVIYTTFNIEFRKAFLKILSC
Chain of D(2) dopamine receptor (Homo sapiens) (P14416 whole entry): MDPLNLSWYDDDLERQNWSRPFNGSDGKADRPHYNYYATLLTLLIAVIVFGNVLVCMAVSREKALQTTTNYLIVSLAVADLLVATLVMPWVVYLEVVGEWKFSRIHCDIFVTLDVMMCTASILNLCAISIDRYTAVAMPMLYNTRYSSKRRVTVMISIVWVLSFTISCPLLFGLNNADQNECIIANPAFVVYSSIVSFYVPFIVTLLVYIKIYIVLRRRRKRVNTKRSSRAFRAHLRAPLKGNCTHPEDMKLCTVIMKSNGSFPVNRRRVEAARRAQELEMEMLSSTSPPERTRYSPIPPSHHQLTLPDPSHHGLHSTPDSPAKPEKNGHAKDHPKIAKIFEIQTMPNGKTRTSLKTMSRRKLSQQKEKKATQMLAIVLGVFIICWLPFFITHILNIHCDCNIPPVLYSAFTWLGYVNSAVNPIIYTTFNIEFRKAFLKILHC
Chain of D(1B) dopamine receptor (Homo sapiens) (P21918 whole entry): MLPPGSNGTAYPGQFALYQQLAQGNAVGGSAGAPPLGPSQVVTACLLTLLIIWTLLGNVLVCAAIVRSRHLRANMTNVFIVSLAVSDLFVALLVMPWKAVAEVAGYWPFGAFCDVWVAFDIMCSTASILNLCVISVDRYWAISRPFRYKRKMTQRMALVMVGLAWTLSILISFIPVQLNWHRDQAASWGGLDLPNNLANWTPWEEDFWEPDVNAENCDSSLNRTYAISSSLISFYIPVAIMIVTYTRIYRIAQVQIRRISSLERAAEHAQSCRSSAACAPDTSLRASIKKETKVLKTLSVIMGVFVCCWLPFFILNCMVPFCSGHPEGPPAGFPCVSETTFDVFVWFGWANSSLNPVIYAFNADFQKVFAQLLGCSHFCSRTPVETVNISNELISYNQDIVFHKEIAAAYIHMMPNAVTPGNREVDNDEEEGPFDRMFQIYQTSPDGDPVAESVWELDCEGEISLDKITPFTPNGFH
Chain of Histamine H1 receptor (Homo sapiens) (P35367 whole entry): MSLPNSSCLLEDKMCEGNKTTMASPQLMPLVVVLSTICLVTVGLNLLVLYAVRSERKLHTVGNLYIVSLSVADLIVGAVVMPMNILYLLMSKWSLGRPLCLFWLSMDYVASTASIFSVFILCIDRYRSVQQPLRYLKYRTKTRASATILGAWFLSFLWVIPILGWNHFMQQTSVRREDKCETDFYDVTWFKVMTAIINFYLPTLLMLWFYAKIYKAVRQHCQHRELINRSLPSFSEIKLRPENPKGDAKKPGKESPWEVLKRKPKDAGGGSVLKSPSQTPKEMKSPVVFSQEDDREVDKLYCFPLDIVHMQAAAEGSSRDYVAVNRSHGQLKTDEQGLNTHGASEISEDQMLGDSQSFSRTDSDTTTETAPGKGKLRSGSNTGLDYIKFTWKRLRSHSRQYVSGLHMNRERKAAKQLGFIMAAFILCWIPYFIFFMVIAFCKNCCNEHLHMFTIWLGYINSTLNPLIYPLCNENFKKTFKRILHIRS
Chain of Kappa-type opioid receptor (Homo sapiens) (P41145 whole entry): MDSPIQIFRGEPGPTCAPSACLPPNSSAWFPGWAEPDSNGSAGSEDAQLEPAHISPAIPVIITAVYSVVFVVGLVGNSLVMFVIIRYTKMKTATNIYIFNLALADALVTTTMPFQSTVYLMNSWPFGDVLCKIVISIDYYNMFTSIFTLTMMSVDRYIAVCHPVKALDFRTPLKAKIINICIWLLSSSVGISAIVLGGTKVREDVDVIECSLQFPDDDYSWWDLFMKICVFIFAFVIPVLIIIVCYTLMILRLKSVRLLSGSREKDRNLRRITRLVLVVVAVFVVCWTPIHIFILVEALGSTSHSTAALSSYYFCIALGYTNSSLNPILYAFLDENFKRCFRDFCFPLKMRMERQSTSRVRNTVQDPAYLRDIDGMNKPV
Chain of Sigma non-opioid intracellular receptor 1 (Homo sapiens) (Q99720 whole entry): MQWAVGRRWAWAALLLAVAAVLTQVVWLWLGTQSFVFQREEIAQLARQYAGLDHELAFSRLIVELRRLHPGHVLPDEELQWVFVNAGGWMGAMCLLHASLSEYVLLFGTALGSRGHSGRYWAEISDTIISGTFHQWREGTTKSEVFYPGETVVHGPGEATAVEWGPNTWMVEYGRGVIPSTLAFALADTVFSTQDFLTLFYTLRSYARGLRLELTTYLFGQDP
Chain of D(1A) dopamine receptor (Homo sapiens) (P21728 whole entry): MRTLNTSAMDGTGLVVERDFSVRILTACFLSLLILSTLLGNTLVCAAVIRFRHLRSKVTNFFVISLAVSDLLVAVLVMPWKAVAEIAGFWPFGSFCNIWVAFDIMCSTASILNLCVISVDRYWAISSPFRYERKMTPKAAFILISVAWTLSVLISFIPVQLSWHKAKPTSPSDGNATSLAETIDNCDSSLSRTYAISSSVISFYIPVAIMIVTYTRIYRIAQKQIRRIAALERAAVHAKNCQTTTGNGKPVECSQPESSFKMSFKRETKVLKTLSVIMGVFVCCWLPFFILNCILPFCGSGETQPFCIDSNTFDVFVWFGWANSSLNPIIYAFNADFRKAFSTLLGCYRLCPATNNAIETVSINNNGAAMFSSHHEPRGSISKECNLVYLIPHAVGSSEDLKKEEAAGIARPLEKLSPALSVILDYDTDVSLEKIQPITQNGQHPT

CN1C[C@H](C(=O)N[C@]2(C)O[C@@]3(O)[C@@H]4CCCN4C(=O)[C@H](Cc4ccccc4)N3C2=O)C[C@@H]2c3cccc4[nH]cc(c34)C[C@H]21
inhibition [1]: 91.3%
inhibition [2]: 96.3%
inhibition [3]: 102%
inhibition [4]: 100%
inhibition [5]: 14.2%
inhibition [6]: 15.5%
inhibition [7]: 17.8%
inhibition [8]: 97.4%
inhibition [9]: 5.72%
inhibition [10]: 21.2%
inhibition [11]: -5.91%
inhibition [12]: 38.2%
inhibition [13]: 78.7%
inhibition [14]: 36.3%
inhibition [15]: 72.9%
inhibition [16]: 3.01%
inhibition [17]: 97.8%

c1nc(CC2CCNCC2)c[nH]1
inhibition [1]: 11.9%
inhibition [2]: -10%
inhibition [3]: 7.26%
inhibition [4]: 27.8%
inhibition [5]: 3.71%
inhibition [7]: -4.6%
inhibition [18]: 26.1%
inhibition [8]: 18.8%
inhibition [9]: 14.6%
inhibition [10]: 15.7%
inhibition [11]: -0.76%
inhibition [12]: 95.9%
inhibition [19]: 23%
inhibition [13]: 5.35%
inhibition [14]: 24.2%
inhibition [20]: 20.8%
inhibition [15]: 38.7%
inhibition [16]: 105%
inhibition [17]: -4.62%

COc1ccc(NC(=O)c2ccc(-c3ccc(-c4noc(C)n4)cc3C)cc2)cc1OCCN(C)C
inhibition [1]: 78.8%
inhibition [2]: 32.1%
inhibition [3]: 38%
inhibition [4]: 34.6%
inhibition [5]: 0.83%
inhibition [6]: 44%
inhibition [7]: 4.01%
inhibition [18]: 22.1%
inhibition [9]: 86.1%
inhibition [10]: 94%
inhibition [11]: 7.57%
inhibition [12]: 65.4%
inhibition [19]: 77.3%
inhibition [13]: 48.4%
inhibition [14]: 47.9%
inhibition [20]: 95.4%
inhibition [15]: 70%
inhibition [16]: 49%
inhibition [17]: 33.1%

CCC(=O)NCC[C@@H]1CCc2ccc3c(c21)CCO3
inhibition [1]: 12.4%
inhibition [2]: -7.41%
inhibition [3]: 10.9%
inhibition [4]: 2.72%
inhibition [5]: -5.97%
inhibition [6]: 14.2%
inhibition [7]: 28.5%
inhibition [18]: -1.68%
inhibition [9]: -2.02%
inhibition [10]: 18%
inhibition [11]: -2.55%
inhibition [19]: 22%
inhibition [13]: -3.26%
inhibition [14]: -1.3%
inhibition [20]: 6.79%
inhibition [15]: 89.6%
inhibition [17]: 8.49%

COc1cc2nc(N3CCN(C(=O)c4ccco4)CC3)nc(N)c2cc1OC
inhibition [1]: 23.8%
inhibition [2]: 8.03%
inhibition [3]: 0%
inhibition [4]: 49.2%
inhibition [5]: 4.29%
inhibition [6]: 11%
inhibition [7]: 2.66%
inhibition [8]: 19.4%
inhibition [9]: 29.4%
inhibition [10]: 26.5%
inhibition [11]: 2.17%
inhibition [12]: 8.21%
inhibition [13]: 7.69%
inhibition [14]: 22.2%
inhibition [15]: 68%
inhibition [16]: 1.83%
inhibition [17]: 37.6%

CCc1cc2c(cc1CC)CC(NC[C@H](O)c1ccc(O)c3[nH]c(=O)ccc13)C2
inhibition [1]: -0.79%
inhibition [2]: 1.29%
inhibition [3]: 75.3%
inhibition [4]: -7.35%
inhibition [5]: 1.1%
inhibition [7]: 68%
inhibition [18]: 34.9%
inhibition [9]: 83.1%
inhibition [10]: 84.6%
inhibition [11]: 17.9%
inhibition [19]: 38.5%
inhibition [13]: 38.5%
inhibition [14]: 11.9%
inhibition [20]: 61.1%
inhibition [15]: -7.63%
inhibition [16]: 4.91%
inhibition [17]: 58.8%

OC[C@H]1O[C@@H](n2cnc3c(NC4CCCC4)ncnc32)[C@H](O)[C@@H]1O
inhibition [1]: 16.1%
inhibition [2]: -5.74%
inhibition [3]: -2.06%
inhibition [4]: 25%
inhibition [5]: -3.21%
inhibition [6]: -5.12%
inhibition [7]: 1.3%
inhibition [18]: 2.72%
inhibition [9]: 36.9%
inhibition [10]: 28.3%
inhibition [11]: 3.39%
inhibition [12]: 7.78%
inhibition [19]: 11%
inhibition [13]: 80.8%
inhibition [14]: -1.28%
inhibition [20]: -8.74%
inhibition [15]: 51.9%
inhibition [17]: 7.26%

NC(=O)[C@@H]1CCCN1C(=O)[C@H](Cc1c[nH]cn1)NC(=O)[C@@H]1CCC(=O)N1
inhibition [1]: -8.14%
inhibition [3]: -8.73%
inhibition [4]: -4.39%
inhibition [5]: 1.37%
inhibition [6]: 6.58%
inhibition [7]: -1.74%
inhibition [18]: 9.67%
inhibition [8]: 10.6%
inhibition [9]: 40.9%
inhibition [10]: 35.9%
inhibition [11]: -2.83%
inhibition [12]: 10.9%
inhibition [19]: 14%
inhibition [13]: 0.19%
inhibition [14]: -1.35%
inhibition [20]: 23.5%
inhibition [15]: 34.1%
inhibition [16]: 8.04%
inhibition [17]: 4.54%

COC(=O)[C@H]1[C@H]2C[C@H]3c4[nH]c5ccccc5c4CCN3C[C@H]2CC[C@@H]1O
inhibition [1]: 85.2%
inhibition [2]: 1.62%
inhibition [3]: 58.7%
inhibition [4]: 49.4%
inhibition [5]: -0.55%
inhibition [6]: 19%
inhibition [7]: 6.36%
inhibition [8]: 85.3%
inhibition [9]: 6.37%
inhibition [10]: 43.4%
inhibition [11]: -4.59%
inhibition [12]: 7.16%
inhibition [13]: 11.8%
inhibition [14]: 32.4%
inhibition [15]: 63.2%
inhibition [16]: 8.74%
inhibition [17]: 31%

CCCCCCCCCCCCC/C=C/[C@@H](O)[C@@H](N)COP(=O)(O)O
inhibition [1]: 16.1%
inhibition [2]: -8.27%
inhibition [3]: 9.46%
inhibition [4]: 10.6%
inhibition [5]: 20.4%
inhibition [6]: 6.18%
inhibition [7]: 0.96%
inhibition [18]: 14.3%
inhibition [8]: 3.57%
inhibition [10]: 35.1%
inhibition [11]: -2.5%
inhibition [12]: 6.7%
inhibition [19]: -1.62%
inhibition [13]: 22.7%
inhibition [14]: 2.88%
inhibition [20]: -3.21%
inhibition [15]: 63.8%
inhibition [16]: 7.9%
inhibition [17]: 1.79%

— ChEMBL document CHEMBL5442219
